The values that follow come from ChEMBL document CHEMBL1201862, “PubChem BioAssay data set” (2004).

The structures appear in SMILES notation.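 Following 48 hours of exposure in 96-well plates, responses at five concentrations were used to interpolate endpoints linearly. The concentration for 50% growth inhibition is given as GI50.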 Calls of active or inactive are those of the source. No stated cut-off is given here; in the data, active = GI50 up to about 1.1 µM and inactive = higher.

Test systems include NCI-H226; UACC-257; SF-539; ACHN; K562; A498; SNB-19; U-251; RPMI-8226; RXF 393; MDA-MB-231; HL-60; HCC 2998; KM12; OVCAR-5; SF-295; DU-145; T47D; MOLT-4; Hs-578T.
Holding throughout (experiment): NCI tumour cell line growth inhibition, 48 h

On to `CC12C=CC(=O)C=C1CCC1C3CCC(O)(C(=O)CO)C3(C)CC(O)C12F` (stereo not given), for which the GI50 with NCI-H226, in the assay with UACC-257, in the assay on SF-539, in the assay with ACHN, in the assay with K562 and in the assay on A498 was > 100 µM (inactive) each time. The GI50 with SNB-19 was > 100 µM (inactive); in the assay on U-251 it was > 100 µM (inactive); in the assay on RPMI-8226 it was 17.1 µM (inactive); in the assay on RXF 393 it was > 100 µM (inactive); in the assay with MDA-MB-231 it was > 100 µM (inactive); in the assay on HL-60, > 100 µM (inactive). Further, the GI50 was > 100 µM (inactive) with HCC 2998; > 100 µM (inactive) in the assay with KM12; > 76.4 µM (inactive) with OVCAR-5; > 100 µM (inactive) with SF-295; > 100 µM (inactive) with DU-145; > 100 µM (inactive) in the assay on T47D. Further, the GI50 with MOLT-4 and in the assay with Hs-578T was > 100 µM (inactive) in each case.

Turning to `c1ccc2cc(CN3CCC(C4CCN(Cc5ccc6ccccc6c5)CC4)CC3)ccc2c1`, the GI50 was 11.4 µM (inactive) with NCI-H226; 1.98 µM (inactive) in the assay with UACC-257; 1.8 µM (inactive) in the assay on SF-539; 4.99 µM (inactive) in the assay with ACHN; 0.692 µM (active) with K562; 10.8 µM (inactive) in the assay on A498. The GI50 was 11.5 µM (inactive) in the assay on SNB-19; 2.33 µM (inactive) in the assay on U-251; 2.48 µM (inactive) with RPMI-8226; 2.74 µM (inactive) in the assay on RXF 393; 4.82 µM (inactive) in the assay with MDA-MB-231; 1.53 µM (inactive) in the assay on HL-60. For the same compound, the GI50 is 1.1 µM (active) in the assay with HCC 2998; 2.97 µM (inactive) with KM12; 10.1 µM (inactive) with OVCAR-5; 1.9 µM (inactive) with SF-295; 11.8 µM (inactive) with DU-145; 4.76 µM (inactive) in the assay with T47D. Moreover, the GI50 was 3.41 µM (inactive) with MOLT-4 and 2.49 µM (inactive) in the assay on Hs-578T.

As to `CCOC(=O)C1=C(C(=O)OCC)SC2(S1)C(C(=O)OCC)=C(C(=O)OCC)Sc1c2ssc1=O`, the GI50 in the assay on NCI-H226 was 22.1 µM (inactive); with UACC-257, 1.6 µM (inactive); in the assay with SF-539, 0.845 µM (active); in the assay on ACHN, 1.72 µM (inactive); in the assay on K562, 0.474 µM (active); in the assay with A498 it was 6.15 µM (inactive). The GI50 with SNB-19 was 3.84 µM (inactive); in the assay on U-251 it was 1.93 µM (inactive); in the assay with RPMI-8226, 1.59 µM (inactive); in the assay on RXF 393, 1.03 µM (active); in the assay with MDA-MB-231 it was 2 µM (inactive); with HL-60 it was 0.279 µM (active). The GI50 was 2.42 µM (inactive) in the assay with HCC 2998; 4.52 µM (inactive) in the assay with KM12; 4.7 µM (inactive) in the assay with OVCAR-5; 15 µM (inactive) with SF-295; 0.857 µM (active) in the assay on DU-145; 1.76 µM (inactive) with T47D. The values for the GI50 with MOLT-4 and with Hs-578T were 0.226 µM (active) and 1.97 µM (inactive), respectively.

On to `CN1CC2=C(OC(N)=C(C#N)C2c2cccs2)/C(=C/c2cccs2)C1` (stereo not given), for which the GI50 with NCI-H226 was > 74.1 µM (inactive); with UACC-257, 9.53 µM (inactive); in the assay with SF-539, 48.8 µM (inactive); in the assay on ACHN it was 2.43 µM (inactive); in the assay on K562, 10.3 µM (inactive); in the assay on A498, 21.8 µM (inactive). Also, the GI50 was > 59.3 µM (inactive) in the assay on SNB-19; 8.59 µM (inactive) in the assay on U-251; 4.45 µM (inactive) with RPMI-8226; 10.1 µM (inactive) with RXF 393; > 49 µM (inactive) in the assay on MDA-MB-231; 1.81 µM (inactive) with HL-60. The GI50 in the assay on HCC 2998 was 25.6 µM (inactive); in the assay with KM12, 9.12 µM (inactive); with OVCAR-5, > 84.9 µM (inactive); in the assay on SF-295, 11.6 µM (inactive); in the assay with DU-145, 23.4 µM (inactive); in the assay on T47D it was 0.202 µM (active). For the same compound, the GI50 in the assay on MOLT-4 was 2.43 µM (inactive); in the assay on Hs-578T it was > 100 µM (inactive).

With `O/N=C(/CC(O)(C(F)(F)F)C(F)(F)F)c1ccccc1`, the GI50 in the assay with NCI-H226, in the assay on UACC-257, with SF-539, in the assay with ACHN, in the assay with K562 and in the assay with A498 was > 10 µM (inactive) in each case. Also, the GI50 in the assay with SNB-19, in the assay with U-251, in the assay on RPMI-8226, with RXF 393, with MDA-MB-231 and with HL-60 was > 10 µM (inactive) in each case. Further, the GI50 in the assay with HCC 2998, with KM12, in the assay on OVCAR-5, in the assay on SF-295, in the assay with DU-145 and in the assay with T47D was > 10 µM (inactive) in each case. Further, the GI50 in the assay on MOLT-4 and in the assay with Hs-578T was > 10 µM (inactive) in each case.

Take `CC(=O)NCCC1CN(C(=O)/C=C/I)c2ccccc21` (stereo not given): the GI50 with NCI-H226 was 14.5 µM (inactive); in the assay with UACC-257, 7.48 µM (inactive); with SF-539, 8 µM (inactive); in the assay with ACHN, 6.59 µM (inactive); with K562, 3.73 µM (inactive); in the assay with A498, 6.98 µM (inactive). In addition, the GI50 in the assay with SNB-19 was 14.8 µM (inactive); in the assay with U-251, 10.8 µM (inactive); in the assay on RPMI-8226, 0.292 µM (active); with RXF 393, 5.21 µM (inactive); in the assay with MDA-MB-231 it was 2.91 µM (inactive); with HL-60 it was 3.17 µM (inactive). Moreover, the GI50 in the assay with HCC 2998 was 15.9 µM (inactive); in the assay with KM12, 1.24 µM (inactive); in the assay on OVCAR-5 it was 15.8 µM (inactive); with SF-295, 15.5 µM (inactive); in the assay with DU-145 it was 15.7 µM (inactive); in the assay on T47D, 2.04 µM (inactive). In addition, the GI50 is 3.79 µM (inactive) in the assay on MOLT-4 and 9.66 µM (inactive) with Hs-578T.

As to `COc1ccc(Cl)cc1NC(=O)O/N=C(\Cl)C(C)C`, the GI50 was 12.7 µM (inactive) in the assay with NCI-H226; 17.1 µM (inactive) in the assay on UACC-257; 13.1 µM (inactive) in the assay on SF-539; 2.12 µM (inactive) in the assay on ACHN; 1.98 µM (inactive) in the assay on K562; 21.5 µM (inactive) with A498. Further, the GI50 in the assay with SNB-19 is 29.5 µM (inactive); in the assay with U-251, 26.4 µM (inactive); in the assay on RPMI-8226 it was 2.06 µM (inactive); with RXF 393, 3.76 µM (inactive); with MDA-MB-231 it was 6.22 µM (inactive); with HL-60, 2.16 µM (inactive). Besides, the GI50 in the assay with HCC 2998 is 16.4 µM (inactive); in the assay on KM12, 16.8 µM (inactive); with OVCAR-5, 18.4 µM (inactive); in the assay on SF-295, 17.9 µM (inactive); in the assay on DU-145 it was 19.3 µM (inactive); in the assay with T47D, 3.38 µM (inactive). Moreover, the figures for the GI50 with MOLT-4 and with Hs-578T were 2.03 µM (inactive) and 23.7 µM (inactive), respectively.

Take `O=C1NC(=S)NC(=O)C1=Cc1cccc2cc3ccccc3cc12`: the GI50 with NCI-H226 was 2.03 µM (inactive); in the assay on UACC-257, 1.78 µM (inactive); in the assay with SF-539, 1.58 µM (inactive); with ACHN it was 1.95 µM (inactive); in the assay on K562 it was 2.07 µM (inactive); with A498, 1.97 µM (inactive). Also, the GI50 with SNB-19 is 2.28 µM (inactive); with U-251, 1.69 µM (inactive); with RPMI-8226, 1.24 µM (inactive); in the assay on RXF 393 it was 1.66 µM (inactive); in the assay on MDA-MB-231, 2.01 µM (inactive); with HL-60 it was 1.71 µM (inactive). Besides, the GI50 in the assay on HCC 2998 was 2.04 µM (inactive); in the assay with KM12 it was 1.98 µM (inactive); in the assay on OVCAR-5 it was 2.3 µM (inactive); in the assay with SF-295 it was 2.46 µM (inactive); in the assay with DU-145, 1.47 µM (inactive); in the assay with T47D it was 0.9 µM (active). Besides, the GI50 in the assay with MOLT-4 is 2.12 µM (inactive); with Hs-578T, 2.97 µM (inactive).

`CC1=C(CO)C(=O)O[C@@H]([C@@H](C)[C@H]2CC[C@H]3[C@@H]4C[C@@H](O)[C@@]5(O)CC=CC(=O)[C@]5(C)[C@H]4CC[C@]23C)C1` [JABOROSALACTONE D]: the GI50 was 35.8 µM (inactive) with NCI-H226; > 100 µM (inactive) with UACC-257; 31 µM (inactive) with SF-539; 26.8 µM (inactive) in the assay with ACHN; 26.8 µM (inactive) with K562; 18.7 µM (inactive) in the assay on A498. The GI50 in the assay with SNB-19 was 46.5 µM (inactive); in the assay with U-251 it was 37 µM (inactive); in the assay with RPMI-8226, 24.9 µM (inactive); in the assay on RXF 393 it was 22.3 µM (inactive); in the assay with MDA-MB-231 it was 31.3 µM (inactive); in the assay on HL-60, 21.1 µM (inactive). In addition, the GI50 in the assay with HCC 2998 is 30.3 µM (inactive); with KM12, 19.8 µM (inactive); in the assay on OVCAR-5, > 100 µM (inactive); in the assay with SF-295, 61.5 µM (inactive); with DU-145, 35.2 µM (inactive); in the assay with T47D, 58.1 µM (inactive). The GI50 in the assay on MOLT-4 is 26.6 µM (inactive); with Hs-578T it was 35.7 µM (inactive).

Regarding `CC1=Nc2ccccc2/C1=C\c1c(C)[nH]c2ccccc12`, the GI50 is 15.2 µM (inactive) with NCI-H226; 13.2 µM (inactive) with UACC-257; 24.5 µM (inactive) with SF-539; 15.7 µM (inactive) with ACHN; 7.21 µM (inactive) with K562; 17.5 µM (inactive) with A498. For the same compound, the GI50 in the assay on SNB-19 was 16.6 µM (inactive); with U-251 it was 15.9 µM (inactive); with RPMI-8226, 16.3 µM (inactive); in the assay on RXF 393, 10.6 µM (inactive); in the assay with MDA-MB-231, 13.4 µM (inactive); in the assay with HL-60, 5.85 µM (inactive). Besides, the GI50 with HCC 2998 is 15.5 µM (inactive); with KM12 it was 13.2 µM (inactive); in the assay on OVCAR-5, 23.4 µM (inactive); with SF-295, 18.6 µM (inactive); in the assay on DU-145, 15.8 µM (inactive); in the assay with T47D it was 9.53 µM (inactive). Further, the GI50 was 3.4 µM (inactive) in the assay with MOLT-4 and 8.63 µM (inactive) in the assay with Hs-578T.
